Measurements from PMC8897968 (European Journal of Medicinal Chemistry, 2022).

Columns and labels:
rabies virus CVS strain = assay: microbe, parasite or virus in culture; format: cell-based; details: for IC50: Lyssavirus rabies, read-out: IC50 values (anti-rabies, as worded in the text)
[1] = Cytotoxicity in Huh 7 cells; details: human, Huh 7 cells
Kunming mice = assay: Acute toxicity test in Kunming mice; details: oral, single dose, monitored for 7 days
rabies virus G protein = rabies virus G protein (Rabies virus, UniProt O92284); assay: biochemical; format: binding
Sequence of rabies virus G protein (O92284 20-459 limits assumed): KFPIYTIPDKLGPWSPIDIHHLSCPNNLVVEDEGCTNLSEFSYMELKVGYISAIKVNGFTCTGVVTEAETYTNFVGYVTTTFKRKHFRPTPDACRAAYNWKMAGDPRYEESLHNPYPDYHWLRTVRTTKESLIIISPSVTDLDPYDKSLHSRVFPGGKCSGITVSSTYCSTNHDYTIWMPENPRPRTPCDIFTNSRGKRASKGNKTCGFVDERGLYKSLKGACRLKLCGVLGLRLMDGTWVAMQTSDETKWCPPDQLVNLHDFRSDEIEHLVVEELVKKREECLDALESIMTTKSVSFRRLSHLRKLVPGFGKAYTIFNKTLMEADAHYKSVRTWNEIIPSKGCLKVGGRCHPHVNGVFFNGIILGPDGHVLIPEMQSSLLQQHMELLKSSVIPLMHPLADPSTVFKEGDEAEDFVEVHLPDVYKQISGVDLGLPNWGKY

Huh 7 cells = assay: Cytotoxicity in Huh 7 cells; details: Cytotoxic concentration required to inhibit Huh 7 cell growth by 50%
pSARS-CoV-2 = format: cell-based, SARS-CoV-2
BSR cells = assay: Cytotoxicity in BSR cells; details: Cytotoxic concentration required to inhibit BSR cell growth by 50%

`CC(C)/N=c1\cc2n(-c3ccccc3)c3ccccc3nc-2cc1NCc1ccccc1` [Compound 7p, 2-Benzylamino-3-isopropylimino-5-phenyl-3,5-dihydrophenazine] gave an IC50 (rabies virus CVS strain) of 1400 nM.

In the case of `CC(C)/N=c1\cc2n(-c3ccc(F)cc3)c3ccccc3nc-2cc1Nc1ccc(F)cc1` [Compound 15b], the CC50 at 24 h [1] is reported as over 200000 nM.

`CC(C)/N=c1\cc2n(-c3ccc(Cl)cc3)c3ccccc3nc-2cc1Nc1ccc(OC(F)(F)F)cc1` [Compound 7i, 2-p-Trifluoromethoxyanilino-3-isopropylimino-5-p-chlorophenyl-3,5-dihydro phenazine] gave an IC50 (rabies virus CVS strain) of 1770 nM.

For `COc1ccc(-n2c3c/c(=N\C(C)C)c(Nc4cccc(F)c4)cc-3nc3ccccc32)cn1` [Compound 15f, 2-m-Fluoroanilino-3-isopropylimino-5-(6-methoxy-3-pyridinyl)-3,5-dihydro phenazine], the IC50 (rabies virus CVS strain) was 1450 nM, the “median lethal dose (LD50)” value (Kunming mice) was “over 800 mg•kg^−1” and the Kd (rabies virus G protein) was 280 nM.

With `CC(C)/N=c1\cc2n(-c3ccc(Cl)cc3)c3ccccc3nc-2cc1Nc1ccc(Cl)cc1` [Compound 1, clofazimine, reference compound] the Kd (rabies virus G protein) was 730 nM.

In the case of “2-p-fluoroanilino-3-isopropylimino-5-p-chlorophenyl-3,5-dihydrophenazine [Compound 15a]”, the CC50 (Huh 7 cells) is reported as 17000 nM, the EC50 (rabies virus CVS strain) is reported as 4020 nM and the EC50 (pSARS-CoV-2) is reported as 29600 nM. The CC50 (BSR cells) was over 200000 nM.

`CC(C)/N=c1\cc2n(-c3ccc(Cl)cc3)c3ccccc3nc-2cc1NCc1ccc(Cl)cc1` [Compound 7k, 2-p-Chlorobenzylamino-3-isopropylimino-5-p-chlorophenyl-3,5-dihydrophena zine] gave an IC50 (rabies virus CVS strain) of 760 nM.

With `CC(C)/N=c1\cc2n(-c3ccccc3)c3ccccc3nc-2cc1Nc1ccc(Cl)cc1` [Compound 7l] the IC50 (rabies virus CVS strain) was 1400 nM.

Work on `CC(C)/N=c1\cc2n(-c3ccccc3)c3ccccc3nc-2cc1NCc1ccc(F)cc1` [Compound 7q, 2-p-Fluorobenzylamino-3-isopropylimino-5-phenyl-3,5-dihydrophenazine] yielded an IC50 (rabies virus CVS strain) of 1900 nM.

Work on “2-Benzyl-3-imino-5-phenyl-3,5-dihydrophenazine [Compound 6l]” yielded an EC50 (rabies virus CVS strain) of 35400 nM and a CC50 (BSR cells) of 35400 nM.

For `COc1ccc(-n2c3c/c(=N\C(C)C)c(Nc4ccc(F)cc4)cc-3nc3ccccc32)cn1` [Compound 15g, 2-p-Fluoroanilino-3-isopropylimino-5-(6-methoxy-3-pyridinyl)-3,5-dihydro phenazine], the IC50 (rabies virus CVS strain) was 1410 nM and the “median lethal dose (LD50)” value (Kunming mice) was “over 800 mg•kg^−1”.
